According to patent US4049795A, “Treatment of hemorrhagic shock” (priority 1974, dated 1977):
Like-named read-outs stand apart in the source and are kept apart here.

Key:
[1] = test system: free fatty acids in the plasma; experiment: Non-esterified fatty acids in the plasma (DOLE); assay type: in vivo, rabbit; conditions: 1 g/kg
Method: Doses of 1 and 2 mg of adrenalin were introduced subcutaneously into rabbits weighing 2.5 to 3.5 kg.
FIGS. 8, 9 and 10 show the variation in the percentage of non-esterified fatty acids in the plasma as a function of the time. […]

[2] = test system: electro-cardiograms; conditions: in vivo
[3] = test system: Rabbit atrium; experiment: Isolated rabbit atrium
From the text: The technique used for this study was the same as that described above for the ileum of the rabbit, but replacing the ileum with bled rabbit atrium. The preservation liquid used as LOCKE's liquid.

[4] = test system: isolated segment of aorta; experiment: Isolated segment of aorta, tonus
[5] = test system: rats; experiment: Toxicity, oral administration in rats; assay type: in vivo, rat; conditions: six rats
[6] = test system: hemorrhagic shock; experiment: Irreversible hemorrhagic shock (WIGGERS) in dogs
[7] = pH of a solution in distilled water; assay type: physicochemical
[8] = test system: Nitrogen anoxemia; experiment: Nitrogen anoxemia in rabbits; assay type: in vivo, rabbit
Method: The tests were done on rabbits weighing an average of 2.5 kg. The fastening of the cranial electrodes was done under local anaesthesia with procaine, as was the placing of the catheters in a femoral artery to record the blood pressure. The tracheotomies and tracheal intubations were also done under local anaesthesia using procaine. The temperature was maintained at around 38° C. Three types of anoxemia were investigated; 3. Nitrogen anoxemia: The animal was curarized and artifically ventilated as indicated above. Anoxemia was obtained by connecting a nitrogen gasbag to the air intake of the BEAUDOUIN apparatus; general non-hypercapnic anoxemia occurred. Air was […] seconds. […] A latency of 30 minutes was observed before anoxemia was caused.

[9] = test system: hepatic and renal circulation
[10] = Tolerance, intraperitoneal route, rabbits; conditions: rabbit, in vivo, ip, single dose, read-out: tolerated single dose
From the text: Rabbits tolerate a single dose of 8 g/kg by the intraperitoneal route.

[11] = test system: Rabbit ileum; experiment: Isolated rabbit ileum, tonus
Method: Fragments of the ileum were suspended in a 75 ml isolated organ tank containing Tyrode's solution maintained at 37° C. by a thermostat and oxygenated by bubbling pure oxygen at a constant rate of flow. The movement of the organ were recorded by means of a lever on a cylinder rotating at a known constant speed.

[12] = test system: cerebral anoxemia by clamping; experiment: Cerebral anoxemia by clamping in rabbits; assay type: in vivo, rabbit; conditions: 1 g/kg intravenously
Method: The tests were done on rabbits weighing an average of 2.5 kg. The fastening of the cranial electrodes was done under local anaesthesia with procaine, as was the placing of the catheters in a femoral artery to record the blood pressure. The tracheotomies and tracheal intubations were also done under local anaesthesia using procaine. The temperature was maintained at around 38° C. Three types of anoxemia were investigated; 1. Elective cerebral anoxemia by stopping cerebral circulation (anoxemia by clamping): Artificial ventilation was set up by an apparatus allowing constant volume and speed of respiration. An upper sternatomy of the manubrium was carried out; the left sub-[…] artery, the left carotid artery and the right trucus brachiocephalicus were isolated. The clamps were then put into place according to the technique described by […] and LABORIT (Conference of d Agressologie Cycle, Vol. 1, p. 15 ff of 1959). The artificially ventilated animal preserved good peripheral cardiovascular dynamics during the ischemia and supported 120 seconds of clamping without severe hypotension. 3. Nitrogen anoxemia: The animal was curarized and artifically ventilated as indicated above. Anoxemia was obtained by connecting a nitrogen gasbag to the air intake of the BEAUDOUIN apparatus; general non-hypercapnic anoxemia occurred. Air was […] seconds. […] A latency of 30 minutes was observed before anoxemia was caused.

[13] = test system: blood pressure; conditions: for blood pressure after first injection: Clinical Example 12, 2 g
From the text: A person who had suffered from high blood pressure for a long time underwent an urgent operation for the removal of an intra-cerebral hematoma. […] A person who had suffered from high blood pressure and cardiac arrhythmias, was undergoing an operation for the removal of a bilateral sub-dural hematoma. […] A person of generally good health but who had undergone surgery in the previous month for the excision of a cancer of the cecum, was undergoing an operation for a cerebral metastasis. […] A perfusion of two units of blood (800 ml ) was effected to compensate for the moderate blood losses.

[14] = test system: response to adrenalin, noradrenalin and serotonin; experiment: Response to adrenalin, noradrenalin and serotonin in the dog; assay type: in vivo; conditions: in the presence of dihydroxyacetone
[15] = test system: electro-encephalograms; conditions: in vivo
[16] = test system: cerebral lactate edema; conditions: edema induced by mechanical, biological or pharmacological means; cited from earlier work

Compound: O=C(CO)CO [dihydroxyacetone]
- percentages of non-esterified fatty acids in the plasma after adrenalin ([1]; after 1 mg of adrenalin, fed animals, FIG. 10): general tendency toward increased percentages
- percentage of non-esterified fatty acids in the plasma, fasted animals ([1]; animals without food for 24 hours, FIG. 11): return to normal
- change in the electro-cardiograms [2]: no change in the electro-cardiograms within standard deviations
- amplitude of atrium ([3]; 800 mg per 75 ml of preservation liquid): a slight increase in amplitude
- effect on inhibitory action of sodium lactate added subsequently ([3]; dihydroxyacetone 800 mg per 75 ml, then 600 mg of sodium lactate): a slight opposition to its inhibitory action
- action on the lactate when it was added first ([3]; lactate added first): no action
- chronotropic action ([3]; rabbit atrium): negative chronotropic action
- tonus of an isolated segment of aorta [4]: does not act on the tonus
- animals died at oral dose of 80 g/kg [5]: one
- duration of the rise in blood pressure ([6]; 4 to 7 g/kg): maintained for several hours
- arterial and venous CO2 pressures and pH in hemorrhagic shock ([6]; 4 to 7 g/kg over about 3 hours): developed in a similar manner to those existing in the control animals
- glycemia in hemorrhagic shock ([6]; 4 to 7 g/kg over about 3 hours): rose above its initial level
- kalemia in hemorrhagic shock ([6]; 4 to 7 g/kg over about 3 hours): rose above that of the control animals
- lactacidemia in hemorrhagic shock ([6]; 4 to 7 g/kg over about 3 hours): reached values higher than in the control animals
- pyruvicemia in hemorrhagic shock ([6]; 4 to 7 g/kg over about 3 hours): continued to rise
- average difference in blood pressure between end of reinjection of effused blood and after the perfusion ([6]; 4 to 7 g/kg, average): 21.5 mm Hg
- blood pressure elevation or restoration compared with hypertonic glucose ([6]; comparison in words): appears to be more active than hypertonic glucose
- effect on the blood pressure in hemorrhagic shock ([6]; irreversible shock): favorable effect on the blood pressure
- pH of a solution in distilled water [7]: 4
- recuperation latency, nitrogen anoxemia ([8]; 1 g/kg intravenously): a slight improvement
- recuperation time, nitrogen anoxemia ([8]; 1 g/kg intravenously): no improvement
- survival time, nitrogen anoxemia ([8]; 1 g/kg intravenously, prior perfusion): minor
- blood pressure in nitrogen anoxemia ([8]; anoxemia preceded by perfusion of dihydroxyacetone): maintained a high value
- blood CO2 pressure ([9]; in vivo): stable
- blood pH without neutralisation of the solution ([9]; in vivo): a slight fall in the blood pH
- average pressure and pulse pressure ([9]; intravenous perfusion of 2 g/kg): A slight increase in the average pressure and a widening of the pulse pressure
- hepatic and renal flows ([9]; rapid perfusion, 1 g/kg): variably increased
- hepatic flow ([9]; rapid perfusion, 1 g/kg): nearly doubled
- MTD [10]: 8000 mg/kg
- tonus of ileum ([11]; 50 mg to 75 ml of survival medium): only a slight and transient tonus increase
- tonus of ileum ([11]; dose printed as 18): a momentary hypertonia
- effect of potassium chloride in the presence of dihydroxyacetone ([11]; rabbit ileum): decreases only the contractile amplitude without affecting the tonus
- effect on hypertonia due to acetylcholine ([11]; rabbit ileum, acetylcholine): did not change
- effect on hypertonia caused by adrenalin ([11]; rabbit ileum, adrenalin): clearly decreased
- effect on action of nicotine ([11]; rabbit ileum, nicotine): clearly diminished
- effect on hypertonic activity of serotonin ([11]; rabbit ileum, serotonin): The same observation was made with serotonin
- effect on hypertonic action of sodium lactate ([11]; rabbit ileum, sodium lactate): influenced to only a small degree
- effect on hypertonic activity of reducing agents ([11]; vitamin C or amino-ethyl isothiouronium): disappeared
- recuperation latency, anoxemia by clamping [12]: no improvement at all
- recuperation time, anoxemia by clamping [12]: no improvement
- survival time, anoxemia by clamping ([12]; prior perfusion): minor
- blood pressure after first injection ([13]; after two hours): 95 mm Hg
- blood pressure after first injection ([13]; one hour, from 90): 130 mm Hg
- blood pressure after second injection ([13]; Clinical Example 12, second 2 g in 10% glucose solution, remained): 130 mm Hg
- blood pressure after injection ([13]; Clinical Example 13, 2 g over 15 minutes, from 60): 100 mm Hg
- blood pressure after injection ([13]; Clinical Example 14, 2 g, 45 minutes later): 170 mm Hg
- blood pressure after injection ([13]; Clinical Example 14, 2 g, within 20 minutes, from 70): 130 mm Hg
- blood pressure after perfusion ([13]; Clinical Example 15, 2 g, within 15 minutes, from 60): 110 mm Hg
- blood pressure after injection, stabilized ([13]; Clinical Example 16, 3 g): 100 mm Hg
- blood pressure after injection, initial rise ([13]; Clinical Example 16, 3 g, from 80): 120 mm Hg
- post-operative complications ([13]; human, in vivo): no post-operative complications
- undesirable side effects ([13]; human, in vivo): without undesirable side effects
- response to adrenalin, noradrenalin and serotonin [14]: remained unchanged
- formation of slow waves [15]: does not seem to favour the formation of slow waves
- protection against cerebral lactate edema [16]: will protect a rat against cerebral lactate edema
